# From ChEMBL document CHEMBL1201862, “PubChem BioAssay data set” (2004)
# Calls of active or inactive are those of the source.
# Assays:
# [1] = HEK293T cytotoxicity, dose response, cytotoxicity control for miR-122 modulator project, cell-based, inhibitor set, cherry-pick, set 2 (AID 720697); assay type: functional
# [2] = inhibitors of CMV-promoter luciferase reporter, dose response, counter-screen for Pax8 inhibitor project, cell-based, HEK293, luminescence, dry powder (AID 743020); assay type: functional
# Paired box protein Pax-8 = Paired box protein Pax-8 (Homo sapiens, UniProt Q06710); assay: inhibitors of PAX8-driven TPO luciferase reporter, dose response, RMG-I cells, cherry-pick (AID 687027); assay type: functional, cell-based;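 note: luciferase reporter driven by Pax8 target thyroperoxidase promoter measured by SteadyGlo luminescence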
# [3] = HEK293T cell cytotoxicity, dose response, cytotoxicity control, luminescence plate reader, powder samples, set 4 (AID 651863); assay type: functional, cell-based; details: HEK293
# [4] = AlphaScreen signal interference by compounds, dose response, artefact control for ARNT/TACC3 disruptor project, biochemical, dual-tagged ARNT, dry powder (AID 720564)
# [5] = HeLa cell cytotoxicity, dose response, cytotoxicity control, CellTiter-Glo luminescence, dry powder, set 2 (AID 720593); assay type: functional, cell-based
# Major prion protein = Major prion protein (Homo sapiens, UniProt P04156); assay type: functional, cell-based
# Albumin = Albumin (Bos taurus, UniProt P02769); assay: Counterscreen for inhibitors of T-cell receptor (TCR)-CD3 interaction: Fluorescence-based biochemical high throughput dose response assay to identify inhibitors of T-cell receptor (TCR)-CD3 interaction using a TAMRA-labeled BSA probe.; assay type: functional
# Large T antigen = Large T antigen (Simian virus 40, UniProt P03070); assay type: functional, Betapolyomavirus macacae;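 note: Confirmatory-stage PubChem screen for compounds that inhibit SV40 T antigen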
# [6] = C. albicans growth with fluconazole, confirmation, fluorescence, retest (AID 2467); assay type: functional, cell-based
# Caspase-6 = target: T1, Caspase-6 (Homo sapiens, UniProt P55212); assay: human caspase-6 inhibitors, dose response, biochemical, VEID-R110 fluorescence, cherry-pick (AID 720632)
# T1 sequence (P55212 whole entry): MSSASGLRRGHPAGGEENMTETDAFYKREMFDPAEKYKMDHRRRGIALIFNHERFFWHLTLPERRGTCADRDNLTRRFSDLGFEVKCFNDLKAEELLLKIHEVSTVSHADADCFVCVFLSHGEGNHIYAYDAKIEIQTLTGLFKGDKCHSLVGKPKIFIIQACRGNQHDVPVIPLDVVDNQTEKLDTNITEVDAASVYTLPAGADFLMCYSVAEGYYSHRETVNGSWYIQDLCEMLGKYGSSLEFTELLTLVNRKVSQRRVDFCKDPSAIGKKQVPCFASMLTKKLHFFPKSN
# [7] = NIH-3T3 fibroblast cytotoxicity, dose response, cytotoxicity control, cell-based, fluorescence, Alamar Blue, secondary assay (AID 2327); assay type: functional;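 note: NIH-3T3 mouse fibroblasts cultured with fluconazole at 8 µg/mL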
# [8] = target: Endoplasmic reticulum aminopeptidase 1 (Homo sapiens, UniProt Q9NZ08); assay: ERAP1 aminopeptidase inhibitors, dose response, biochemical, cherry-pick, set 2, plate reader (AID 743314)
# [9] = human group III sPLA2 inhibitors, dose response, biochemical, QFRET, IC50 (AID 743457);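 note: green fluorescence rise as the enzyme cleaves BODIPY PC-A2 in liposomes; potency for inhibition of the enzyme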
# [10] = target: T2, Methionyl-tRNA synthetase, putative (Trypanosoma brucei brucei, UniProt Q38C91); assay type: functional, Trypanosoma brucei brucei strain 927/4 GUTat10.1
# T2 sequence (Q38C91 whole entry): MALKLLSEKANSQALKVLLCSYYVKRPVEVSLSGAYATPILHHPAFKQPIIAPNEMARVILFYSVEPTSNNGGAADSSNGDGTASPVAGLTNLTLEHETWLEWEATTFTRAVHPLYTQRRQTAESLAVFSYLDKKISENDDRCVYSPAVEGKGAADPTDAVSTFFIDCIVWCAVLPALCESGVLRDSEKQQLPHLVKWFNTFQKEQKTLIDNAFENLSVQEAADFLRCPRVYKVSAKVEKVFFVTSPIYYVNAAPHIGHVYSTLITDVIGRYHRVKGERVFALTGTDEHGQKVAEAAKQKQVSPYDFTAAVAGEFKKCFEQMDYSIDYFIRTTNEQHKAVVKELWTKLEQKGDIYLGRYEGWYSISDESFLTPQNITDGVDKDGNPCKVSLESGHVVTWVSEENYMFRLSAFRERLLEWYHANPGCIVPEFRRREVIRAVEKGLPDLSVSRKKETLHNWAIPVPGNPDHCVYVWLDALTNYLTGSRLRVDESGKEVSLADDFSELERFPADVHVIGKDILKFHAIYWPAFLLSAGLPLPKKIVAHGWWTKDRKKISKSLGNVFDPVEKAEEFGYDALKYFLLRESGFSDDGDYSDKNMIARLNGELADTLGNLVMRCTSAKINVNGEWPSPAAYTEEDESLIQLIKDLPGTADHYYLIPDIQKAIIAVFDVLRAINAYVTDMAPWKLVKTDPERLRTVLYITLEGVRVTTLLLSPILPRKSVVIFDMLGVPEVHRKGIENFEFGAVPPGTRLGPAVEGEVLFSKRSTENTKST
# [11] = target: Disintegrin and metalloproteinase domain-containing protein 17 (Homo sapiens, UniProt P78536); assay: ADAM17 protease inhibitors, dose response, counter-screen for ADAM10 exosite inhibitor project, biochemical, quenched FRET substrate (AID 743253)
# [12] = Counterscreen for inhibitors of Trypanosoma brucei methionyl tRNA synthetase (MetRS): Luminescence-based cell-based high throughput dose response assay to identify compounds that are cytotoxic to Jurkat human T lymphocyte cells.; assay type: functional
# [13] = target: T2, Methionyl-tRNA synthetase, putative; assay type: functional, Trypanosoma brucei brucei strain 927/4 GUTat10.1; remark: listed apart in the source
# [14] = inhibitors of intracellular T. cruzi replication, confirmation, NIH3T3 host cells, beta-gal luminescence (AID 2044); assay type: functional, cell-based;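 note: intracellular parasites grown in NIH/3T3 mouse fibroblasts as host cells; luminescent beta-galactosidase reporter signal from transgenic T. cruzi replicating inside host cells; inhibitors lower the luminescence signal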
# [15] = cytotoxicity toward NIH3T3 fibroblasts, dose response, counter-screen, cell-based, ATP luminescence, mouse fibroblasts (AID 2010); assay type: functional;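 note: cells exposed to compound for about 90 hours before reading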
# [16] = ADAM10 inhibitors, peptide cleavage, dose response, biochemical, QFRET (AID 743254);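 note: ADAM10 enzyme with the DM2 quenched FRET peptide as substrate; EDANS fluorescence gain as the protease cuts the substrate; inhibitor potency against ADAM10 proteolytic activity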
# [17] = Counterscreen for antagonists of the human trace amine associated receptor 1 (hTAAR1): Fluorescence-based cell-based high throughput dose response assay to identify nonselective Ga16 antagonists.; assay type: functional
# [18] = Counterscreen for […] of the human trace amine associated receptor 1 (TAAR1): Fluorescence-based cell-based high throughput dose response assay to identify nonselective Ga16 agonists.; assay type: functional
# [19] = target: T3, Trace amine-associated receptor 1 (Homo sapiens, UniProt Q96RJ0); assay: Counterscreen for antagonists of the human trace amine associated receptor 1 (hTAAR1): Fluorescence-based cell-based high throughput dose response assay to identify TAAR1 Agonists.; assay type: functional
# T3 sequence (Q96RJ0 whole entry): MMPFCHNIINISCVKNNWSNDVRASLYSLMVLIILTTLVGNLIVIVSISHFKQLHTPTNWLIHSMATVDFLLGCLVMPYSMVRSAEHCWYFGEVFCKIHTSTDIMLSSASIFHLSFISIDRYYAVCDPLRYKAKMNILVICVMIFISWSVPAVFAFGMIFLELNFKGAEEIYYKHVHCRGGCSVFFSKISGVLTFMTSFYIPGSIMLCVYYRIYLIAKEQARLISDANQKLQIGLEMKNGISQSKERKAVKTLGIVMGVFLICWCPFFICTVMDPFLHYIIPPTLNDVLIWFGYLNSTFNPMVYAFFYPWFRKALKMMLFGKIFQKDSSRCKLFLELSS
# [20] = target: T3, Trace amine-associated receptor 1; assay: Fluorescence-based cell-based high throughput dose response assay to identify antagonists of the human trace amine associated receptor 1 (TAAR1).; assay type: functional
# [21] = HEK293 cell cytotoxicity, dose response, cytotoxicity control, cherry-picks, set 5 (AID 1053117); assay type: functional, cell-based
# fMet-Leu-Phe receptor = fMet-Leu-Phe receptor (Homo sapiens, UniProt P21462); assay: FPR ligands, dose response (AID 519); assay type: functional
# [22] = HEK293T cytotoxicity, dose response, cytotoxicity control for miR-122 modulator project, cell-based, activator set, cherry-pick (AID 720690); assay type: functional;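 note: HEK293T human cells scored for general mammalian cytotoxicity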
# Fatty acid synthase = Fatty acid synthase (Homo sapiens, UniProt P49327); assay: FAS thioesterase domain inhibitors, SAR follow-up, biochemical, endpoint fluorescence intensity, powder samples (AID 652164); assay type: functional
# [23] = A Cell-Based Confirmatory Screen for Compounds that Inhibit VEEV, TC-83 (3).; assay type: functional
# [24] = HepG2 cell cytotoxicity, dose response, cytotoxicity control, CellTiter-Glo luminescence, cherry-pick, set 2 (AID 743395); assay type: functional
# BJ = assay: cytotoxicity toward Ras-transformed BJeLR fibroblasts, dose response, cell-based, alamar blue fluorescence, cherrypicked samples (AID 2631); assay type: functional; details: Homo sapiens;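 note: confirmatory dose-response assay in RAS-dependent BJ fibroblasts engineered with TERT, LT and ST, with cytotoxicity read by fluorescence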
structure (smiles),measurement,setting,value
CCC(=O)NC[C@@H]1[C@@H](c2ccc(C3=CCCC3)cc2)[C@@H](CO)N1C(C)=O,AC50,[1],9.42 µM (active)
C[C@@H]1CCCCO[C@@H](CN(C)C(=O)Nc2ccc(F)cc2)[C@H](C)CN([C@@H](C)CO)C(=O)c2cc(NC(=O)Nc3ccc(C(F)(F)F)cc3)ccc2O1,AC50,[2],67.7 µM (active)
same,AC50,Paired box protein Pax-8,4.11 µM (active)
COC(=O)C(C(=O)OC)c1cc(NS(=O)(=O)c2c(C)cc(C)cc2C)c2ccccc2c1O,AC50,[3],27 µM (active)
O=C(Nc1nc(-c2ccncc2)cs1)c1cccc(S(=O)(=O)N2CCOCC2)c1,AC50,[4],110 µM (active)
same,AC50,[5],> 52 µM (inactive)
Cc1cc(NC(=O)CCC(=O)N(c2ccccc2)C(C(=O)NC2CCCC2)c2cccs2)no1 (centres undefined),IC50,Major prion protein,16.2 µM (inactive)
same,IC50,cells,> 138 µM (inactive)
C/C(=N/NC(=O)c1cc(O)c(O)c(O)c1)c1ccc([N+](=O)[O-])cc1,IC50,Albumin,> 94.1 µM (inactive)
same,IC50,Large T antigen,8.68 µM (active)
same,EC50,[6],> 38 µM (not active)
same,AC50,Caspase-6,27.5 µM (active)
same,EC50,[7],> 160 µM (inactive)
COC(=O)[C@H]1[C@H](CO)[C@H]2Cn3c(ccc(-c4ccncc4)c3=O)[C@H]2N1Cc1ccccc1F,AC50,[8],10.2 µM (active)
CCCCN=C(S)NNC(=O)c1csc(C)c1C,IC50,[9],> 122 µM (inactive)
COc1ccccc1NS(=O)(=O)c1cccc(NC(=O)Nc2cccc(Cl)c2)c1,IC50,[10],15.7 µM (inactive)
same,IC50,[11],> 69.5 µM (inactive)
same,IC50,[12],41.1 µM (inactive)
same,IC50,[13],12 µM (inactive)
same,EC50,[14],2.16 µM (active)
same,EC50,[15],> 60 µM (not active)
same,IC50,[16],12 µM (inactive)
Cc1cc(/C=N\NC(=O)CC(=O)NC2CCCCC2)c(C)n1-c1ccc(Cl)c(Cl)c1,IC50,[17],15.3 µM (inactive)
same,EC50,[18],> 29.9 µM (inactive)
same,EC50,[19],7.54 µM (active)
same,IC50,[20],0.915 µM (active)
Cc1cccc(NC(=O)c2ccc(S(=O)(=O)N3CCCCC3)cc2)n1,AC50,[21],> 52 µM (inactive)
CCC(Sc1nc2c(c(=O)[nH]1)CCC2)C(=O)Nc1cccc(OC)c1 (centres undefined),Ki,fMet-Leu-Phe receptor,35.5 µM (inactive)
CN[C@H]1C[C@H]2c3[nH]c4ccc(-c5ccc(OC)cc5)cc4c3CCN2C(=O)[C@H]1[C@H](C)O,AC50,[22],15.8 µM (active)
CC(=O)Nc1nc(-c2ccc(S(=O)(=O)N3CCSCC3)cc2)cs1,IC50,Fatty acid synthase,> 80 µM (inactive)
CC(C)N1CCN(Cc2nc3ccc([N+](=O)[O-])cc3c(=O)n2-c2ccccc2F)CC1,IC50,[23],3.13 µM (active)
COc1ccc(C(=O)c2cc([N+](=O)[O-])ccc2N2CCOCC2)cc1,AbsAC35_uM,[24],60.09 µM
same,AC50,Paired box protein Pax-8,3.21 µM (active)
same,EC50,BJ,< 0.104 µM (active)
